Laboratory results reported in ChEMBL document CHEMBL2062363, “Ligand-based design, in silico ADME-Tox filtering, synthesis and biological evaluation to discover new soluble 1,4-DHP-based CFTR activators” (Eur J Med Chem, 2012).

Tests used:
[1] = target: L-type voltage-dependent Ca2+ channel (Homo sapiens, UniProt O60840+Q01668+Q13698+Q13936); test: Inhibition of L-type voltage-dependent Ca2+ channel at 1 uM
[2] = Potentiation of forskolin-induced CFTR deltaF508 mutant expressed in FRT cells co-expressing halide-sensitive YFP-H148Q/I152L by fluorescence quenching assay; type: cell-based, Homo sapiens

inhibition at 1 µM [1] [%] | pEC50 for potentiation of CFTR deltaF508 (activation potency) [2] | SMILES
79.2 |  | CCOC(=O)C1=C(C)NC(C)=C(C(=O)OC)C1c1ccc([N+](=O)[O-])cc1 (centres undefined)
100 | 6.54 | CCOC(=O)C1=C(C)NC(C)=C(C(=O)OCC)C1c1cccc(Br)c1
100 | 6.4 | CCOC(=O)C1=C(C)NC(C)=C(C(=O)OCC)C1c1ccccc1
100 |  | CCOC(=O)C1=C(C)NC(C)=C(C(=O)OCC)C1c1cccc([N+](=O)[O-])c1
19.7 |  | COC(=O)C1=CNC=C(C(=O)OC)C1c1ccccc1Cl
46.3 |  | CCOC(=O)C1=C(C)N=C(C)/C(=C(/O)OCC)C1/C=C/c1ccccc1 (centres undefined)
100 |  | CCOC(=O)C1=C(C)NC(C)=C(C(=O)OCC)C1c1c(F)c(F)c(F)c(F)c1F
27.6 |  | CCOC(=O)C1=C(C)N=C(C)/C(=C(/O)OCC)C1/C=C/c1ccccc1OC (centres undefined)
5.9 | 6.96 | C=CCOC(=O)C1=C(C)NC(C)=C(C(=O)OCC=C)C1c1ccc(C(C)(C)C)cc1
93.3 |  | CCOC(=O)C1=C(C)NC(C)=C(C(=O)OCC)C1c1ccc(Cl)cc1
29.4 |  | CCOC(=O)C1=C(C)NC(C)=C(C(=O)OCC)C1c1ccc(C)cc1
18.8 | 5.48 | COC(=O)C1=C(C)N=C(C)/C(=C(/O)OC)C1/C=C/c1ccccc1 (centres undefined)
38.7 |  | CCOC(=O)C1=C(C)N(c2ccc(OC)cc2)C(C)=C(C(=O)OCC)C1c1ccccc1
12.9 |  | COC(=O)C1=C(C)N(c2ccc(N(C)C)cc2)C(C)=C(C(=O)OC)C1c1ccc(Cl)cc1
98.6 | 5.87 | CCOC(=O)C1=C(C)NC(C)=C(C(=O)OCC)C1c1ccc(F)cc1
100 | 6.51 | CCOC(=O)C1=C(C)NC(C)=C(C(=O)OCC)C1c1cc(Cl)cc(Cl)c1OC
41.8 | 6.09 | CCOC(=O)C1=C(C)NC(C)=C(C(=O)OCC)C1c1ccc(OC)cc1OC
100 | 6.06 | COC(=O)C1=C(C)NC(C)=C(C(=O)OCCCBr)C1c1cccc([N+](=O)[O-])c1 (centres undefined)
86.9 | 5.85 | CCOC(=O)C1=C(C)NC(C)=C(C(=O)OC)C1c1ccco1 (centres undefined)
100 | 6.72 | COC(=O)C1=C(C)NC(C)=C(C(=O)OC)C1c1ccc(Cl)cc1Cl
37.6 | 6.15 | CCOC(=O)C1=C(C)NC(C)=C(C(=O)OC)C1c1ccc(C)o1 (centres undefined)
100 |  | CCOC(=O)C1=C(C)NC(C)=C(C(=O)OC)C1c1ccccc1 (centres undefined)
92.6 | 5.96 | COC(=O)C1=C(C)NC(C)=C(C(=O)OC)C1c1ccc(Cl)cc1

inhibition at 1 µM [1] [%] | pEC50 for potentiation of CFTR deltaF508 (activation potency) [2] | SMILES
100 | 6.51 | CCOC(=O)C1=C(C)NC(C)=C(C(=O)OC)C1c1ccc(Cl)cc1 (centres undefined)
100 | 6.34 | COC(=O)C1=C(C)NC(C)=C(C(=O)OC)C1c1ccccc1Cl
27.1 | 6.3 | CCOC(=O)C1=C(C)NC(C)=C(C(=O)OCC)C1c1ccc(Br)cc1
100 | 6.1 | CCOC(=O)C1=C(C)NC(C)=C(C(=O)OCC)C1c1ccc(Cl)c(Cl)c1
100 | 6.89 | CCOC(=O)C1=C(C)NC(C)=C(C(=O)OC)C1c1ccc(Cl)c(Cl)c1 (centres undefined)
9.1 | 6.29 | COC(=O)C1=C(C)NC(C)=C(C(=O)OC)C1c1ccc(OC)cc1
95.9 | 6.26 | COC(=O)C1=C(C)NC(C)=C(C(=O)OC)C1c1ccccc1F
14.6 | 5.27 | CCOc1ccc(C2C(C(=O)OC)=C(C)NC(C)=C2C(=O)OC)cc1
54.9 | 6.18 | COC(=O)C1=C(C)NC(C)=C(C(=O)OC)C1c1ccc(C(C)C)cc1
32.4 | 5.48 | COC(=O)C1=C(C)NC(C)=C(C(=O)OC)C1c1ccc(OC)c(Br)c1
15.6 | 4.93 | COC(=O)C1=C(C)NC(C)=C(C(=O)OC)C1c1ccc(OC)c([N+](=O)[O-])c1
37.2 | 5.71 | COC(=O)C1=C(C)NC(C)=C(C(=O)OC)C1c1ccc2c(c1)OCO2
32.1 | 5.89 | CCOC(=O)C1=C(C)NC(C)=C(C(=O)OCC)C1c1ccc(C(C)(C)C)cc1
72.8 | 5.92 | CC1=C(C(=O)OCc2ccccc2)C(c2ccc(O)cc2)C(C(=O)OCc2ccccc2)=C(C)N1
92.9 | 5.23 | CC1=C(C(=O)OCc2ccccc2)C(c2ccc(Cl)cc2)C(C(=O)OCc2ccccc2)=C(C)N1
100 | 5.93 | COCCOC(=O)C1=C(C)NC(C)=C(C(=O)OCCOC)C1c1cccc([N+](=O)[O-])c1
34.2 |  | CCOC(=O)C1=C(C)NC(C)=C(C(=O)OCC)C1c1ccc(OC)cc1
35.1 | 5.47 | COC(=O)C1=C(C)N(C)C(C)=C(C(=O)OC)C1c1ccc(Cl)c([N+](=O)[O-])c1
42.2 | 5.23 | COC(=O)C1=C(C)N(C)C(C)=C(C(=O)OC)C1c1cccc(Cl)c1Cl
23.5 | 5.63 | COC(=O)C1=C(C)N(C)C(C)=C(C(=O)OC)C1c1ccc(-c2ccccc2)cc1
100 | 6.52 | CCOC(=O)C1=C(C)NC(C)=C(C(=O)OCC)C1c1c(Cl)cccc1Cl
40.2 | 4.89 | COC(=O)C1=C(C)N(C)C(C)=C(C(=O)OC)C1c1cccc(Cl)c1
34.7 | 5.59 | CCOC(=O)C1=C(C)NC(C)=C(C(=O)OCC)C1c1ccc(N(CC)CC)cc1

inhibition at 1 µM [1] [%] | pEC50 for potentiation of CFTR deltaF508 (activation potency) [2] | SMILES
4.1 |  | COC(=O)C1=C(C)NC(C)=C(C(=O)OC)C1c1ccc(N(C)C)cc1
50.5 | 6.14 | CC1=C(C(=O)OC(C)C)C(c2ccc(Cl)cc2)C(C(=O)OC(C)C)=C(C)N1
23.3 | 5.41 | COc1ccc(C(=O)OC2C(C(=O)OCc3ccccc3)=C(C)NC(C)=C2C(=O)OCc2ccccc2)cc1OC
22.1 | 5.76 | COc1ccc(C2C(C(=O)OC(C)C)=C(C)NC(C)=C2C(=O)OC(C)C)cc1OC
48.2 | 6.52 | C=CCOC(=O)C1=C(C)NC(C)=C(C(=O)OCC=C)C1c1cccc(Oc2ccccc2)c1
87.2 | 6.21 | C=CCOC(=O)C1=C(C)NC(C)=C(C(=O)OCC=C)C1c1ccc(Cl)c(Cl)c1
30.4 | 6.1 | CCOC(=O)C1=C(C)NC(C)=C(C(=O)OCC)C1c1ccc(N(C)C)cc1
100 | 6.21 | CCOC(=O)C1=C(C)NC(C)=C(C(=O)OCC)C1c1ccc(OC)c(OC)c1
100 | 6.62 | CCOC(=O)C1=C(C)NC(C)=C(C(=O)OC)C1c1cc(Cl)cc(Cl)c1OC (centres undefined)
58.7 | 6.29 | CCOC(=O)C1=C(C)NC(C)=C(C(=O)OCC)C1c1ccc(OCC)cc1
100 | 6.46 | COC(=O)C1=C(C)NC(C)=C(C(=O)OC)C1c1cccc(Br)c1
100 | 5.77 | COC(=O)C1=C(C)NC(C)=C(C(=O)OC)C1c1ccc(Cl)c(Cl)c1
100 | 6.59 | CCOC(=O)C1=C(C)NC(C)=C(C(=O)OCC)C1c1ccccc1Cl
37.4 | 6.14 | CCc1ccc(C2C(C(=O)OC)=C(C)NC(C)=C2C(=O)OC)cc1
22.6 | 5.62 | CCOc1ccc(C2C(C(=O)OC)=C(C)NC(C)=C2C(=O)OC)cc1OC
22.8 | 5.35 | CCOC(=O)C1=C(C)NC(C)=C(C(=O)OCC)C1c1ccc(O)c(OCC)c1
44.9 | 5.28 | COc1cc(C2C(C(=O)OCc3ccccc3)=C(C)NC(C)=C2C(=O)OCc2ccccc2)ccc1O
50.6 | 5.44 | COC(=O)C1=C(C)N(C)C(C)=C(C(=O)OC)C1c1ccccc1Cl
45.6 | 4.89 | COC(=O)C1=C(C)N(C)C(C)=C(C(=O)OC)C1c1ccc(Cl)c(Cl)c1
100 | 6.8 | COC(=O)C1=C(C)N=C(C)/C(=C(/O)OC)C1c1c(F)cccc1Cl (centres undefined)
100 | 6.22 | COC(=O)C1=C(C)N=C(C)/C(=C(/O)OC)C1c1cccc(Cl)c1 (centres undefined)
17.1 | 5.7 | COC(=O)C1=CNC=C(C(=O)OC)C1c1ccc(Cl)c(Cl)c1
100 |  | CCOC(=O)C1=C(C)NC(C)=C(C(=O)OC)C1c1cccc([N+](=O)[O-])c1 (centres undefined) [NITRENDIPINE]
